Assay results taken from patent publication US7893055B2, “HIV integrase inhibitors” (priority 2006, dated 2011).
pIC50: −log10 of the molar value.

Each molecule was assayed against T1, HIV-integrase (Human immunodeficiency virus type 1 group M subtype B, UniProt P12497) (assay: HIV-Integrase Inhibition Activity (SPA strand transfer assay)). Conditions: recombinant integrase, SPA beads, P33 labeled target DNA; read-out: Activity (IC50 class, HIV-integrase inhibition).
T1 construct: Recombinant integrase (0.26 ng) was incubated with the beads
Assay type: biochemical
Procedure: HIV-Integrase InhibitionActivity. To evaluate in-vitro activity against HIV-integrase, 5 pmole of biotin labeled substrate DNA was bound to 100 μg of Streptavidin coated PVT SPA beads (Amersham Pharmacia Biotech). Recombinant integrase (0.26 ng) was incubated with the beads for 90 min at 37° C. Unbound enzyme was removed by washing the complex followed by addition of inhibitors and 0.1 fmol of P33 labeled target DNA. The reaction was stopped by adding EDTA to a final concentration of 10 mM. Samples were counted in TopCountNXT (Packard) and the CPM was used as a measure of integration. The reaction condition was as described in A. Engelman and R. Craigie, J. Virol. 69, 5908-5911 (1995). The sequences of substrate and target DNA were described in Nucleic Acid Research 22, 1121-1122 (1994). Activity equal to A refers to a compound having IC50=0.002 to 0.10 μM while B and C denote compounds having IC50=0.1 to 1.0 μM and IC50≧1.0 μM respectively.
In the case of `CC1(C)OCCn2c1nc(C(=O)NCc1ccsc1)c(O)c2=O` [Example 36, Pyrimido[2,1-c][1,4]oxazine-2-carboxamide, 4,6,7,9-tetrahydro-3-hydroxy-9,9-dimethyl-4-oxo-N-(3-thienylmethyl)-], the pIC50 was 7.00 to 8.70.
`Cc1ccc(CNC(=O)c2nc3n(c(=O)c2O)CCOC3(C)C)o1` [Example 37, Pyrimido[2,1-c][1,4]oxazine-2-carboxamide, 4,6,7,9-tetrahydro-3-hydroxy-9,9-dimethyl-N-[(5-methyl-2-furanyl)methyl]-4-oxo-] showed a pIC50 of 7.00 to 8.70.
`CC1(C)OCCn2c1nc(C(=O)NCc1ccco1)c(O)c2=O` [Example 38, Pyrimido[2,1-c][1,4]oxazine-2-carboxamide, N-(2-furanylmethyl)-4,6,7,9-tetrahydro-3-hydroxy-9,9-dimethyl-4-oxo-] gave a pIC50 of 7.00 to 8.70.
`Cc1nn(C)c(C)c1CNC(=O)c1nc2n(c(=O)c1O)CCOC2(C)C` [Example 39, Pyrimido[2,1-c][1,4]oxazine-2-carboxamide, 4,6,7,9-tetrahydro-3-hydroxy-9,9-dimethyl-4-oxo-N-[(1,3,5-trimethyl-1H-pyrazol-4-yl)methyl]-] showed a pIC50 of 6.00 to 7.00.
Molecule `CCn1cc(CNC(=O)c2nc3n(c(=O)c2O)CCOC3(C)C)cn1` [Example 65, Pyrimido[2,1-c][1,4]oxazine-2-carboxamide, N-[(1-ethyl-1H-pyrazol-4-yl)methyl]-4,6,7,9-tetrahydro-3-hydroxy-9,9-dimethyl-4-oxo-] has a pIC50 of 6.00 to 7.00.
In the case of `CC1(C)OCCn2c1nc(C(=O)NCc1cc(C(=O)O)co1)c(O)c2=O` [Example 75, 3-Furancarboxylic acid, 5-[[[(4,6,7,9-tetrahydro-3-hydroxy-9,9-dimethyl-4-oxopyrimido[2,1-c][1,4]oxazin-2-yl)carbonyl]amino]methyl]], the pIC50 was at most 6.00.
Work on `CC1(C)OCCn2c1nc(C(=O)NCC1Cc3ccccc3O1)c(O)c2=O` (centres unmarked) [Example 76, N-(2,3-dihydro-1-benzofuran-2-ylmethyl)-3-hydroxy-9,9-dimethyl-4-oxo-4,6,7,9-tetrahydropyrimido[2,1-c][1,4]oxazine-2-carboxamide] yielded a pIC50 of 7.00 to 8.70.
For `Cc1ccc(CNC(=O)c2nc3n(c(=O)c2O)CCN(C)C32CCC2)o1` [Example 77, 3′-Hydroxy-8′-methyl-N-((5-methyl-2-furyl)methyl)-4′-oxo-7′,8′-dihydro-4′H,6′H-spiro[cyclobutane-1,9′-pyrazino[1,2-a]pyrimidine]-2′-carboxamide], the pIC50 was 7.00 to 8.70.
Molecule `CC1(C)OCCn2c1nc(C(=O)NCc1nn(S(C)(=O)=O)c3ccccc13)c(O)c2=O` [Example 78, 3-Hydroxy-9,9-dimethyl-N-((1-(methylsulfonyl)-1H-indazol-3-yl)methyl)-4-oxo-4,6,7,9-tetrahydropyrimido[2,1-c][1,4]oxazine-2-carboxamide] has a pIC50 of 7.00 to 8.70.
Work on `COC(=O)n1nc(CNC(=O)c2nc3n(c(=O)c2O)CCOC3(C)C)c2ccccc21` [Example 79, Methyl 3-((((3-hydroxy-9,9-dimethyl-4-oxo-4,6,7,9-tetrahydropyrimido[2,1-c][1,4]oxazin-2-yl)carbonyl)amino)methyl)-1H-indazole-1-carboxylate] yielded a pIC50 of 7.00 to 8.70.
`CNC(=O)n1nc(CNC(=O)c2nc3n(c(=O)c2O)CCOC3(C)C)c2ccccc21` [Example 80, 3-Hydroxy-9,9-dimethyl-N-((1-(methylcarbamoyl)-1H-indazol-3-yl)methyl)-4-oxo-4,6,7,9-tetrahydropyrimido[2,1-c][1,4]oxazine-2-carboxamide] showed a pIC50 of 7.00 to 8.70.
For `CC(=O)n1nc(CNC(=O)c2nc3n(c(=O)c2O)CCOC3(C)C)c2ccccc21` [Example 81, N-((1-Acetyl-1H-indazol-3-yl)methyl)-3-hydroxy-9,9-dimethyl-4-oxo-4,6,7,9-tetrahydropyrimido[2,1-c][1,4]oxazine-2-carboxamide], the pIC50 was 7.00 to 8.70.
In the case of `Cc1ccc(CNC(=O)c2nc3n(c(=O)c2O)CCCC32CCC2)o1` [Example 82, 3′-Hydroxy-N-((5-methyl-2-furyl)methyl)-4′-oxo-7′,8′-dihydro-4′H,6′H-spiro[cyclobutane-1,9′-pyrido[1,2-a]pyrimidine]-2′-carboxamide], the pIC50 was 7.00 to 8.70.
`Cc1csc(CNC(=O)c2nc3n(c(=O)c2O)CCCC32CCC2)c1` [Example 83, 3′-Hydroxy-N-((4-methyl-2-thienyl)methyl)-4′-oxo-7′,8′-dihydro-4′H,6′H-spiro[cyclobutane-1,9′-pyrido[1,2-a]pyrimidine]-2′-carboxamide] gave a pIC50 of 7.00 to 8.70.
`Cc1ccc(CNC(=O)c2nc3n(c(=O)c2O)CCCC32CCC2)s1` [Example 84, 3′Hhydroxy-N-((5-methyl-2-thienyl)methyl)-4′-oxo-7′,8′-dihydro-4′H,6′H-spiro[cyclobutane-1,9′-pyrido[1,2-a]pyrimidine]-2′-carboxamide] gave a pIC50 of 7.00 to 8.70.
With `Cc1nnc(CNC(=O)c2nc3n(c(=O)c2O)CCOC3(C)C)o1` [Example 86, 3-Hydroxy-9,9-dimethyl-N-((5-methyl-1,3,4-oxadiazol-2-yl)methyl)-4-oxo-4,6,7,9-tetrahydropyrimido[2,1-c][1,4]oxazine-2-carboxamide] the pIC50 was at most 6.00.
With `CSc1ccc(CNC(=O)c2nc3n(c(=O)c2O)CCOC3(C)C)o1` [Example 87, 3-Hydroxy-9,9-dimethyl-N-((5-(methylthio)furan-2-yl)methyl)-4-oxo-4,6,7,9-tetrahydropyrimido[2,1-c][1,4]oxazine-2-carboxamide] the pIC50 was 7.00 to 8.70.
`CC1(C)OCCn2c1nc(C(=O)NCc1ccc(S(C)(=O)=O)o1)c(O)c2=O` [Example 88, 3-Hydroxy-9,9-dimethyl-N-((5-(methylsulfonyl)furan-2-yl)methyl)-4-oxo-4,6,7,9-tetrahydropyrimido[2,1-c][1,4]oxazine-2-carboxamide] showed a pIC50 of 6.00 to 7.00.
Work on `CC1(C)OCCn2c1nc(C(=O)NCc1cc(-c3ccccc3)no1)c(O)c2=O` [Example 89, 3-Hydroxy-9,9-dimethyl-4-oxo-N-((3-phenyl-5-isoxazolyl)methyl)-4,6,7,9-tetrahydropyrimido[2,1-c][1,4]oxazine-2-carboxamide] yielded a pIC50 of at most 6.00.
Molecule `CC1(C)OCCn2c1nc(C(=O)NCc1nc3c(s1)CCCCC3)c(O)c2=O` [Example 90, 3-Hydroxy-9,9-dimethyl-4-oxo-N-(5,6,7,8-tetrahydro-4H-cyclohepta[d][1,3]thiazol-2-ylmethyl)-4,6,7,9-tetrahydropyrimido[2,1-c][1,4]oxazine-2-carboxamide] has a pIC50 of 7.00 to 8.70.
`Cc1cccc(-n2cc(CNC(=O)c3nc4n(c(=O)c3O)CCOC4(C)C)cn2)c1` [Example 91, 3-Hydroxy-9,9-dimethyl-N-((1-(3-methylphenyl)-1H-pyrazol-4-yl)methyl)-4-oxo-4,6,7,9-tetrahydropyrimido[2,1-c][1,4]oxazine-2-carboxamide] gave a pIC50 of at most 6.00.
In the case of `CC1(C)OCCn2c1nc(C(=O)NCc1nc3ccccc3s1)c(O)c2=O` [Example 92, N-(1,3-Benzothiazol-2-ylmethyl)-3-hydroxy-9,9-dimethyl-4-oxo-4,6,7,9-tetrahydropyrimido[2,1-c][1,4]oxazine-2-carboxamide], the pIC50 was 7.00 to 8.70.
Molecule `CCCn1ccc(CNC(=O)c2nc3n(c(=O)c2O)CCOC3(C)C)n1` [Example 93, 3-Hydroxy-9,9-dimethyl-4-oxo-N-((1-propyl-1H-pyrazol-3-yl)methyl)-4,6,7,9-tetrahydropyrimido[2,1-c][1,4]oxazine-2-carboxamide] has a pIC50 of 6.00 to 7.00.
For “Pyrimido[2,1-c][1,4]oxazine-2- carboxamide, 4,6,7,9-tetrahydro-3- hydroxy-9,9-dimethyl-4-oxo-N- (1H-pyrazol-3-ylmethyl)- [Example 69]”, the pIC50 was 6.00 to 7.00.
For “Pyrimido[2,1-c][1,4]oxazine-2- carboxamide, 4,6,7,9-tetrahydro-3- hydroxy-9,9-dimethyl-4-oxo-N- [(2,3,6,7-tetrahydro-1,3,7- trimethyl-2,6-dioxo-1H-purin-8- yl)methyl]- [Example 60]”, the pIC50 was at most 6.00.
“Pyrimido[2,1-c][1,4]oxazine-2- carboxamide, 4,6,7,9-tetrahydro-3- hydroxy-9,9-dimethyl-4-oxo-N-[2- (2-thienyl)ethyl]- [Example 53]” was tested, and the pIC50 was 6.00 to 7.00.
Work on “Pyrimido[2,1-c][1,4]oxazine-2- carboxamide, 4,6,7,9-tetrahydro-3- hydroxy-9,9-dimethyl-N-[2-(5- methyl-1H-indol-3-yl)ethyl]-4-oxo- [Example 58]” yielded a pIC50 of 6.00 to 7.00.
“Pyrimido[2,1-c][1,4]oxazine-2- carboxamide, 4,6,7,9-tetrahydro-3- hydroxy-9,9-dimethyl-N-[(1- methyl-1H-pyrrol-2-yl)methyl]-4- oxo [Example 47]” showed a pIC50 of 6.00 to 7.00.
Work on “Pyrimido[2,1-c][1,4]oxazine-2- carboxamide, 4,6,7,9-tetrahydro-3- hydroxy-9,9-dimethyl-N-[(4- methyl-2-phenyl-5- thiazolyl)methyl]-4-oxo- [Example 74]” yielded a pIC50 of at most 6.00.
In the case of “Pyrimido[2,1-c][1,4]oxazine-2- carboxamide, 4,6,7,9-tetrahydro-3- hydroxy-9,9-dimethyl-N-[(5- methyl-2-phenyl-2H-1,2,3-triazol- 4-yl)methy]-4-oxo- [Example 49]”, the pIC50 was at most 6.00.
In the case of “Pyrimido[2,1-c][1,4]oxazine-2- carboxamide, 4,6,7,9-tetrahydro-3- hydroxy-9,9-dimethyl-N-[(5- methyl-3-phenyl-4- isoxazolyl)methy]-4-oxo- [Example 43]”, the pIC50 was at most 6.00.
Work on “Pyrimido[2,1-c][1,4]oxazine-2- carboxamide, 4,6,7,9-tetrahydro-3- hydroxy-N-[2-(1H-indol-3- yl)ethyl]-9,9-dimethyl-4-oxo- [Example 57]” yielded a pIC50 of 6.00 to 7.00.
